As a reminder, the IC50 is the concentration needed to halve the response being measured. As usually defined, the MIC is the smallest concentration in the dilution series that meets the test's criterion for growth inhibition. As usually defined, the inhibition is the change of the read-out against control, counted positive when it falls.

The subject of one data set is CHO-K1. The data set is described as follows: Cytotoxicity against CHO-K1 cells by MTT assay. Format: toxicity, cell-based, Cricetulus griseus. Details: concentration or dose not given beside the values. The note with it: chinese hamster. (In general: Tetrazolium dyes change colour on reduction, which living cells bring about.)
Data set [1] in a line: Antioxidant activity assessed as ABTS radical scavenging activity. Type of data set: functional.
Data set [2] deals with T1, Prostaglandin G/H synthase 1 (Ovis aries, UniProt P05979).
T1 sequence (P05979 whole entry): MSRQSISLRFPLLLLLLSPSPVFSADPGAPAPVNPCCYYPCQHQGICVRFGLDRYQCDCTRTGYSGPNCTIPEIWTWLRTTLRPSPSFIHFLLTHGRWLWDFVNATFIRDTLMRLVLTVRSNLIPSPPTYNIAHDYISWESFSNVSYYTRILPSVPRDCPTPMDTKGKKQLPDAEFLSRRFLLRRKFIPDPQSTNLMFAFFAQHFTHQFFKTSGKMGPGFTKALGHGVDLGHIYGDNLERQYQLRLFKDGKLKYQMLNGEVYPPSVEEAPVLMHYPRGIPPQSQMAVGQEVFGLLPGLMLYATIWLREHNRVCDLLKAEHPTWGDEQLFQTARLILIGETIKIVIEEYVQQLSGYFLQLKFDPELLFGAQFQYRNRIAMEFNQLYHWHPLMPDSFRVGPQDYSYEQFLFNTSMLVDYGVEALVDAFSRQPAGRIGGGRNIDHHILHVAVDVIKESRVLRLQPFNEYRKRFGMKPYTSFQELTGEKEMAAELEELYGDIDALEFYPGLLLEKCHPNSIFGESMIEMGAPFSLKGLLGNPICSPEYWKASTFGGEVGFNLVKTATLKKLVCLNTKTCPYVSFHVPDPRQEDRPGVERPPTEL
The data set is described as follows: Inhibition of ovine COX-1.

Data set [3] in a line: Inhibition of soybean 15-LOX. Details: species or system Glycine max.
A further data set concerns Rattus norvegicus. The data set is described as follows: Antiinflammatory activity in rat assessed as inhibition of carrageenan induced paw edema at 50 mg/kg. Format: functional. Details: scale not given: the % may be the effect or the level left.
For data set [4], the system named is Escherichia coli. The data set is described as follows: Antibacterial activity against Escherichia coli assessed as zone of inhibition. Format: functional.
For data set [5], the system named is Aspergillus niger. The data set is described as follows: Antifungal activity against Aspergillus niger assessed as zone of inhibition. Format: functional.
The test system of another data set is Salmonella typhimurium. The data set is described as follows: Antibacterial activity against Salmonella typhimurium assessed as zone of inhibition. Format: functional, Salmonella enterica subsp. enterica serovar Typhimurium.
For data set [6], the system named is Staphylococcus aureus. The data set is described as follows: Antibacterial activity against Staphylococcus aureus assessed as zone of inhibition. Format: functional.
For data set [7], the system named is Bacillus subtilis. The data set is described as follows: Antibacterial activity against Bacillus subtilis assessed as zone of inhibition. Format: functional.
For data set [8], the system named is Pseudomonas aeruginosa. The data set is described as follows: Antibacterial activity against Pseudomonas aeruginosa assessed as zone of inhibition. Type of data set: functional.
For data set [9], the system named is Bacillus subtilis. The data set is described as follows: Antibacterial activity against Bacillus subtilis. Type of data set: functional.
Data set [10] relates to Staphylococcus aureus. The data set is described as follows: Antibacterial activity against Staphylococcus aureus. Format: functional.
Data set [11] has as its system Escherichia coli. The data set is described as follows: Antibacterial activity against Escherichia coli. Format: functional.
Data set [12] relates to Pseudomonas aeruginosa. The data set is described as follows: Antibacterial activity against Pseudomonas aeruginosa. Type of data set: functional.
Data set [13] deals with Aspergillus niger. The data set is described as follows: Antifungal activity against Aspergillus niger. Type of data set: functional.
Data set [14] in a line: Inhibition of Hepatitis C virus NS3 protease. Type of data set: functional, Hepacivirus hominis.
The target of a further data set is T2, Androgen receptor (Homo sapiens, UniProt P10275).
T2 sequence (P10275 whole entry): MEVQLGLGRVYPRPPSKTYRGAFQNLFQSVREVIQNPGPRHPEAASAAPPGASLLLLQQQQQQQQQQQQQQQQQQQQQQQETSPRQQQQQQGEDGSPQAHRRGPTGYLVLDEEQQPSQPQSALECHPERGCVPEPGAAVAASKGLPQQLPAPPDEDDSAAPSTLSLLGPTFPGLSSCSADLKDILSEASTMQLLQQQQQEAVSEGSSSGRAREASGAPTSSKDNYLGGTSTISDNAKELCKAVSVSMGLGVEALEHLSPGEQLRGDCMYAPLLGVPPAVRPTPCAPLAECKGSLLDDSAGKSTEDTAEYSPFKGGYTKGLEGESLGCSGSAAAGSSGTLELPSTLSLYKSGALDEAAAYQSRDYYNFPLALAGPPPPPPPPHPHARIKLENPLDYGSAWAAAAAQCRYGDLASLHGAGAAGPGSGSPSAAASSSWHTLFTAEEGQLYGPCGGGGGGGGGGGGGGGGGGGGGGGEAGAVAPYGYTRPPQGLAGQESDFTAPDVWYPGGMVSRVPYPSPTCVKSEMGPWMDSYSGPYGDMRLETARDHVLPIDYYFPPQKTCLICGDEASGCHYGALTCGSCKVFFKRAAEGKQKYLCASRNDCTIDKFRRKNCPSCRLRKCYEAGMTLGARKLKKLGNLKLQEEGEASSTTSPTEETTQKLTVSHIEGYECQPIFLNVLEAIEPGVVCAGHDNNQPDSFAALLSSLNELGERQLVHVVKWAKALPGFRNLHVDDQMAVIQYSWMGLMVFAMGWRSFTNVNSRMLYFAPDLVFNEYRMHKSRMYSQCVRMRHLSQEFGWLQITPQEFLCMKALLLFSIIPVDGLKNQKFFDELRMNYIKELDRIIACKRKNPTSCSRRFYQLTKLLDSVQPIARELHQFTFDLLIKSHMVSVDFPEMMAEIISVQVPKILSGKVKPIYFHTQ
The data set is described as follows: Antagonist activity at androgen receptor (unknown origin).

Data set [15] deals with Bacillus subtilis. The data set is described as follows: Antibacterial activity against Bacillus subtilis assessed as zone of inhibition at 5 mg/ml. Type of data set: functional. The following applies: read-out: IZ.
A further data set deals with HepG2. The data set is described as follows: Cytotoxicity against human HepG2 cells by MTT assay. Format: functional, cell-based.
The next data set relates to MCF7. The data set is described as follows: Cytotoxicity against human MCF7 cells by MTT assay. Type of data set: functional, cell-based.
A further data set has as its system HCT-116. The data set is described as follows: Cytotoxicity against human HCT-116 cells by MTT assay. Format: functional, cell-based.
Another data set has as its system Candida albicans. The data set is described as follows: Antifungal activity against Candida albicans assessed as zone of inhibition. Format: functional.
Another data set concerns Aspergillus clavatus. The data set is described as follows: Antifungal activity against Aspergillus clavatus. Format: functional.
In data set [16] the test system is Staphylococcus aureus. The data set is described as follows: Antibacterial activity against Staphylococcus aureus assessed as zone of inhibition at 5 mg/ml. Format: functional. The note with it: read-out: IZ.
In another data set the test system is Mus musculus. The data set is described as follows: Antiinflammatory activity in mouse assessed as inhibition of paw edema after 24 hrs. Type of data set: functional. Details: scale not given: the % may be the effect or the level left.
The test system of data set [17] is Escherichia coli. The data set is described as follows: Antibacterial activity against Escherichia coli assessed as zone of inhibition at 5 mg/ml. Format: functional. The following applies: read-out: IZ.
The target of data set [18] is T3, liver carboxylesterase (CES) (Sus scrofa, UniProt Q29550).
T3 sequence (Q29550 whole entry): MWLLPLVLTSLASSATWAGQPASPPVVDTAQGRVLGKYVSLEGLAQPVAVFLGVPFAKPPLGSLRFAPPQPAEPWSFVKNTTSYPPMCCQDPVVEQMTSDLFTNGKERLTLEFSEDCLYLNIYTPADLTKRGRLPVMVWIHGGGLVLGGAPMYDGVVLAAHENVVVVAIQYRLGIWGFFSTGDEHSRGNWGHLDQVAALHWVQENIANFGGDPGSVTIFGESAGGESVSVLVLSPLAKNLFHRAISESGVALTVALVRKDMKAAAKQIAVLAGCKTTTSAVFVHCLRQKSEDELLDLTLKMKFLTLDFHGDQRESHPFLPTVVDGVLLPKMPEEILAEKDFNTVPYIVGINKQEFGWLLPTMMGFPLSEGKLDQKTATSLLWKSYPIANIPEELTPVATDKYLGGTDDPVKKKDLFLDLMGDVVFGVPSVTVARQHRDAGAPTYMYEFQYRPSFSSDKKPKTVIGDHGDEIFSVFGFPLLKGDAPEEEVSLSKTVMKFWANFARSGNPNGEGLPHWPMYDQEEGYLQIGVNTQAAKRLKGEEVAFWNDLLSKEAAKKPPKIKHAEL
The data set is described as follows: Inhibition of pig liver CES at 20 uM relative to control. Format: tissue-based.

In brackets after ≈: the same amount, converted by molar mass.

With `Cc1c(NC(=O)c2cnn3c(N)c(-c4ccccc4)cnc23)c(=O)n(-c2ccccc2)n1C`, the Activity with CHO-K1 was determined as 45.75%.

Compound `Cc1c(NC(=O)c2cnn3cc(-c4ccccc4)cnc23)c(=O)n(-c2ccccc2)n1C` registered an Activity with CHO-K1 of 97.1%.

With `Cc1c(C)c2c(c(C)c1O)CCC(C)(C(=O)O)O2` (stereo not drawn), the Activity in data set [1] amounted to 1 µM.

As for `COc1ccnc(Nc2nn3c(C)cc(C)nc3c2C#N)c1`, the IC50 in [2] worked out at 8.5 µM; in data set [3], 5.6 µM. In addition, the Activity in the data set on Rattus norvegicus is 46%.

Take `Nc1nn2c(-c3ccc(S(=O)(=O)c4ccccc4)cc3)ccnc2c1/N=N/c1ccccc1[N+](=O)[O-]`: the “inhibition zone (IZ)” value in the data set with Escherichia coli [4] is reported as 25.5 mm; with Aspergillus niger [5], 26.3 mm; with Salmonella typhimurium, 26.6 mm.

Turning to `NC(=O)c1c(Nc2ccccc2)nn2c(-c3ccccc3)ccnc12`, the “inhibition zone (IZ)” value in the data set on Staphylococcus aureus [6] is given as 10 mm; in the data set on Escherichia coli [4], 7 mm; with Bacillus subtilis [7], 12 mm; in the data set on Pseudomonas aeruginosa [8], 9 mm. The MIC came out at 3.9 µg/mL (≈ 11.8 µM) in the data set on Bacillus subtilis [9]; 7.81 µg/mL (≈ 23.7 µM) in the data set on Staphylococcus aureus [10]; 15.6 µg/mL (≈ 47.4 µM) in the data set with Escherichia coli [11]; 7.81 µg/mL (≈ 23.7 µM) against Pseudomonas aeruginosa [12]; 15.6 µg/mL (≈ 47.4 µM) against Aspergillus niger [13].

In data set [14], `CC(C)OC(=O)[C@H](C)N[P@](=O)(OC[C@H]1O[C@@H](n2ccc(=O)[nH]c2=O)[C@](C)(F)[C@@H]1O)Oc1ccccc1` [SOFOSBUVIR] displayed an IC50 of 3.2 µg/mL (≈ 6.04 µM).

In turn, `Cc1ccc(C2CC(C(F)(F)F)n3nc(C(N)=O)cc3N2)cc1` (stereo not drawn) showed an IC50 at Androgen receptor of 45.8 µM.

Turning to `Nc1nc2c(/N=N/c3ccc(C(F)(F)F)cc3)c(N)nn2c(N)c1/N=N/c1ccc(C(F)(F)F)cc1`, the zone of inhibition at 5000 µg/mL with Bacillus subtilis [15] turned out to be 8 mm. Besides, the IC50 was 0.6 µg/mL (≈ 1.18 µM) in the data set on HepG2, 0.3 µg/mL (≈ 0.59 µM) with MCF7 and 0.4 µg/mL (≈ 0.787 µM) with HCT-116.

As for `COc1ccc(C2CC(C(F)(F)F)n3nc(-c4ccc(C(=O)O)cc4)cc3N2)cc1OC` (stereo not drawn), inhibition at Androgen receptor was half-maximal at 23.4 µM (IC50).

With `Cc1cc(NN2C(=O)C3CCCCC3C2=O)n2ncc(C#N)c2n1` (stereo not drawn), the minimal inhibitory concentration (MIC) in the data set with Bacillus subtilis [9], against Escherichia coli [11], in the data set on Aspergillus niger [13] and with Aspergillus clavatus was 10 µg/mL (≈ 30.8 µM) in each case. For the same compound, the “inhibition zone (IZ)” value with Candida albicans turned out to be 19.1 mm.

With `Nc1nc2c(/N=N/c3ccc(C(F)(F)F)cc3)c(N)nn2c(N)c1/N=N/c1ccc(F)cc1`, in the data set with Staphylococcus aureus [16], the zone of inhibition at 5000 µg/mL is 10 mm.

Turning to `CCOc1cc(C)nc2c(C#N)c(Nc3cc(OC)ccn3)nn12`, the IC50 was 7.9 µM in data set [2] and 8.4 µM in [3]. Besides, the Activity with Rattus norvegicus is recorded as 46%.

`CC(=O)c1cnc2c(C(=O)Nc3c(C)n(C)n(-c4ccccc4)c3=O)cnn2c1C`: the Activity with Mus musculus stood at 16.57%; with CHO-K1 it was 72.46%.

Turning to `Nc1nc2c(/N=N/c3ccc(F)cc3)c(N)nn2c(N)c1/N=N/c1ccc(F)cc1`, the zone of inhibition at 5000 µg/mL in the data set on Escherichia coli [17] stood at 10 mm.

In data set [18], `O=[N+]([O-])c1ccc(OP(=O)(O)Oc2ccc([N+](=O)[O-])cc2)cc1` gave an inhibition at 20 µM of 1.8%.

Values taken from ChEMBL document CHEMBL5241120, “Insights into the medicinal chemistry of heterocycles integrated with a pyrazolo[1,5-a]pyrimidine scaffold” (RSC Med Chem, 2022).
